# Laboratory results as given in patent US8853258B2, “C-linked hydroxamic acid derivatives useful as antibacterial agents” (Pfizer Inc., priority 2009, dated 2014).
# Like-named read-outs stand apart in the source and are kept apart here.
# Assays:
# [1] = target: Pseudomonas aeruginosa LpxC enzyme (Pseudomonas aeruginosa (strain ATCC 15692 / DSM 22644 / CIP 104116 / JCM 14847 / LMG 12228 / 1C / PRS 101 / PAO1), UniProt P47205); test: IC50 Assay, LpxC Enzyme from P. aeruginosa (PA LpxC Enzyme IC50); format: biochemical
# Summary of the method: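 Reaction run 1 h then stopped with 1N HCl. Conversion measured by RapidFire high-throughput mass spectrometry. IC50 derived from percent conversion relative to a no-enzyme control.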
# [2] = test system: Acinetobacter baumanii/haemolyticus: Multidrug-resistant clinical isolate (AB-3167); test: MIC determination (CLSI), AB-3167; format: cell-based; conditions: for AB-3167 MIC: Acinetobacter baumanii/haemolyticus AB-3167; for MIC: Acinetobacter baumannii, Table 3, read-out: AB-3167 MIC
# Summary of the method: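 Multidrug-resistant clinical isolate AB-3167 (A. baumannii/haemolyticus) tested for minimum inhibitory concentration following CLSI dilution susceptibility standards M7-A7 and M100-S18.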
# [3] = test system: Escherichia coli EC-1: VOGEL, mouse virulent; test: MIC determination (CLSI), EC-1; format: cell-based; conditions: for EC-1 MIC: Escherichia coli EC-1; for MIC: Escherichia coli, read-out: EC-1 MIC
# Summary of the method: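 E. coli Vogel, a mouse-virulent strain (EC-1), was tested. MICs were set by dilution susceptibility testing per CLSI standards M7-A7/M100-S18.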
# [4] = test system: Klebsiella pneumoniae: Ciprofloxacin-resistant isolate, ESBL, clinical isolate (KP-3700); test: MIC determination (CLSI), KP-3700; format: cell-based
# Summary of the method: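 MIC measured by broth dilution according to CLSI M7-A7 and M100-S18 standards. Test organism was a ciprofloxacin-resistant, ESBL-expressing clinical isolate.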
# [5] = test system: Pseudomonas aeruginosa UI-18: Wild-type (PA-7); test: MIC determination (CLSI), PA-7; format: cell-based; conditions: for PA-7 MIC: Pseudomonas aeruginosa UI-18 (PA-7); for MIC: Pseudomonas aeruginosa, Table 3, read-out: PA-7 MIC
# Summary of the method: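 MIC by dilution method per CLSI M7-A7 and M100-S18 guidelines. Strain: wild-type Pseudomonas aeruginosa UI-18.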
# [6] = P. aeruginosa LpxC enzyme, read-out: PA LpxC enzyeme IC50
# [7] = Table 3, read-out: PA LpxC enzyeme IC^50
Compound,"IC50 [1, 6]",AB-3167 MIC [2],EC-1 MIC [3],KP-3700 MIC [4],PA-7 MIC [5],"IC50 [1, 7]",MIC [2],MIC [3],MIC [5]
CC1(O)CCN(C(=O)COc2ccc(-c3ccc(CC[C@](C)(C(=O)NO)S(C)(=O)=O)cc3)cc2)CC1 [Example 222],0.841 nM,≧64 mg/L,16 µg/mL,≧64 mg/L,32 µg/mL,–,–,–,–
C[C@@](CCc1ccc(-c2ccc(OCC(=O)N3CC(O)C3)cc2)cc1)(C(=O)NO)S(C)(=O)=O [Example 223],0.507 nM,≧64 mg/L,16 µg/mL,32 µg/mL,8 µg/mL,–,–,–,–
CC(CCc1ccc(C2=CCCCC2)cc1)(C(=O)NO)S(C)(=O)=O (stereo not shown) [Example 224],0.441 nM,4 µg/mL,4 µg/mL,16 µg/mL,2 µg/mL,–,–,–,–
CC(CCc1ccc(C2=CCOCC2)cc1)(C(=O)NO)S(C)(=O)=O (stereo not shown) [Example 225],1.88 nM,≧64 mg/L,32 µg/mL,≧64 mg/L,4 µg/mL,–,–,–,–
CC(CCc1ccc(C2=CCSCC2)cc1)(C(=O)NO)S(C)(=O)=O (stereo not shown) [Example 226],0.32 nM,16 µg/mL,8 µg/mL,8 µg/mL,1 µg/mL,–,–,–,–
CC(CCc1ccc(C2=CCCC2)cc1)(C(=O)NO)S(C)(=O)=O (stereo not shown) [Example 227],11.4 nM,≧64 mg/L,≧64 mg/L,≧64 mg/L,16 µg/mL,–,–,–,–
CC(CCc1ccc(COc2ccc(F)cc2)cc1)(C(=O)NO)S(C)(=O)=O (stereo not shown) [Example 228],3.28 nM,16 µg/mL,8 µg/mL,16 µg/mL,8 µg/mL,–,–,–,–
CC(CCc1ccc(COc2cccc(F)c2)cc1)(C(=O)NO)S(C)(=O)=O (stereo not shown) [Example 229],3.24 nM,16 µg/mL,8 µg/mL,32 µg/mL,8 µg/mL,–,–,–,–
"CC(CCc1ccc(OCc2ccccc2F)cc1)(C(=O)NO)S(C)(=O)=O (stereo not shown) [Example 242, 4-{4-[(2-fluorobenzyl)oxy]phenyl}-N-hydroxy-2-methyl-2-(methylsulfonyl)butanamide]",–,–,–,8 µg/mL,–,0.655 nM,≥ 64 µg/mL,4 µg/mL,≥ 64 µg/mL
"COc1cc(COc2ccc(CCC(C)(C(=O)NO)S(C)(=O)=O)cc2)cc(OC)c1 (stereo not shown) [Example 244, 4-{4-[(3,5-dimethoxybenzyl)oxy]phenyl}-N-hydroxy-2-methyl-2-(methylsulfonyl)butanamide]",–,–,–,16 µg/mL,–,5 nM,≥ 64 µg/mL,4 µg/mL,≥ 64 µg/mL
"CC(CCc1ccc(OCc2cccc(F)c2F)cc1)(C(=O)NO)S(C)(=O)=O (stereo not shown) [Example 247, 4-{4-[(2,3-difluorobenzyl)oxy]phenyl}-N-hydroxy-2-methyl-2-(methylsulfonyl)butanamide]",–,–,–,16 µg/mL,–,0.325 nM,16 µg/mL,2 µg/mL,2 µg/mL
